Test results from ChEMBL document CHEMBL3638995, “Disubstituted 3,4-diamino-3-cyclobutene-1,2-dione compounds for use in the treatment of chemokine-mediated pathologies” (2015).
pIC50: −log10 of the molar value.

Assays:
[1] = biological target: T1, C-X-C chemokine receptor type 1 (Homo sapiens, UniProt P25024); experiment: (§1) Assay Drug Dev Technol. 2007 February; 5(1); 137-44).; assay type: cell-based
T1 sequence (P25024 whole entry): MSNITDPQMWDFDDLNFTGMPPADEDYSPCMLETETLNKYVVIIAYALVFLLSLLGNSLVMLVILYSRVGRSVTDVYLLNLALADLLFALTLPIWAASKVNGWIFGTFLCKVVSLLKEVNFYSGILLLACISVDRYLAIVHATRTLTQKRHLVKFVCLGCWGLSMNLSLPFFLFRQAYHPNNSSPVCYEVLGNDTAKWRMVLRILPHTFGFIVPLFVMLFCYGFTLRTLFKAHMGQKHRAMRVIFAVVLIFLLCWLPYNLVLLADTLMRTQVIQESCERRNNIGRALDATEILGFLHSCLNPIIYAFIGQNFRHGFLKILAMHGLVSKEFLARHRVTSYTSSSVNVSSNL

[2] = biological target: T2, C-X-C chemokine receptor type 2 (Homo sapiens, UniProt P25025); experiment: as §1; assay type: cell-based
T2 sequence (P25025 whole entry): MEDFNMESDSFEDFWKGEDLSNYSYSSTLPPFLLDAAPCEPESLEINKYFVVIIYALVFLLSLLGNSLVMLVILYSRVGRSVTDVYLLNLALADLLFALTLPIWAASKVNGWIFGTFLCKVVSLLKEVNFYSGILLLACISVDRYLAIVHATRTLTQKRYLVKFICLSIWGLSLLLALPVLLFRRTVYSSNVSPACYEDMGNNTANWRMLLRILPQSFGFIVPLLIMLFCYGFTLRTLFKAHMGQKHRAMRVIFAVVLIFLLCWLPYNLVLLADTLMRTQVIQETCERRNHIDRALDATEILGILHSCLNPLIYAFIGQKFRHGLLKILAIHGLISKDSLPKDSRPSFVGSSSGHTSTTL

pIC50 [1] | pIC50 [2] | Structure (SMILES)
5.41 | 7.02 | Cc1ccc([C@H](Nc2c(Nc3csc(C(=O)N(C)C)c3O)c(=O)c2=O)C2(C)COC2)o1
5.52 | 6.84 | Cc1ccc(C(Nc2c(Nc3cccc(C(=O)N(C)C)c3O)c(=O)c2=O)C2(C)COC2)s1 (stereo unspecified)

Structure (SMILES) | pIC50 [1] | pIC50 [2]
Cc1ccc([C@H](Nc2c(Nc3cccc(C(=O)N(C)C)c3O)c(=O)c2=O)C2(C)COC2)o1 | 6.51 | 7.14
